Measured values reported in patent US5798391A, “Injectable solution of benzalkonium fluoride” (Aromafarm Limited, priority 1994, dated 1998).
Read-outs that look alike come from different tables or passages of the source.

Key:
dogs (beagles) = test: local and general tolerance of intravenous administration in dogs, 28 days; conditions: injected intravenously
E[…] 1 = assay type: cell-based, polio enterovirus 1, SABIN strain; conditions: 32° C.
HIV-1 virus (LAI strain) = test: residual infectiousness of treated HIV-1 on activated human lymphocytes, reverse transcriptase activity; assay type: cell-based, HIV-1 (LAI strain)
[1] = system: HERPES SIMPLEX VIRUS TYPE 2; test: virucidal activity of BKF, AFNOR T72-180, molecular screening (Table 5); assay type: cell-based, Herpes Simplex Virus Type 2 (HSV 2); conditions: 32° C.
AIDS = conditions: person
patient's blood = test: haemolytic concentration on AIDS patients' blood before injection; conditions: solution used 2.1 g/l
guinea pig blood = test: in vitro haemolysis of total blood, guinea pig
mice = test: LD 50, unique administration, Behrens and Karber method, mice; assay type: in vivo, albino mouse
Procedure: The high toxicity of benzalkonium fluoride in unique administration in mice and guinea pigs was determined by the Behrens and Karber method, by intracardiac, intravenous and intraperitoneal injection. The animals used were young adult albino mice and albino guinea pigs. Ten animals were used for each dose administered, five males and five females. The benzalkonium fluoride was used in a 3 g/l isotonic solution of sterile apyrogenic sodium chloride. We observed the animals for 7 days after unique administration carried out using a sterile needle adapted to a syringe graduated in 1/10 ml to allow the treatment of each animal with an exact dose. The animals were weighed each day during the observation period.
The LD 50 (lethal dose 50) was determined.

[2] = female German Pointer 12 kg, same treatment

## CCCCCCCCCCCCCC[N+](C)(C)Cc1ccccc1.[F-] [benzalkonium fluoride, tetradecyl-dimethyl-benzyl-ammonium fluoride]
Dogs (beagles)
  toxic effect, overall: no remarkable toxic effect
E[…] 1; 0.01% (m/V)
  virucidal activity: minimal contact time: 30 min
E[…] 1; 0.01% (m/V), 30 minutes
  Viral Titration: 0 PFU/ml
E[…] 1; 0.01% (m/V), 60 minutes
  Viral Titration: 0 PFU/ml
E[…] 1; 0.01% (m/V), 120 minutes
  Viral Titration: 0 PFU/ml
E[…] 1; 0.02% (m/V), 120 minutes
  Viral Titration: 0 PFU/ml
E[…] 1; 30 minutes contact
  virucidal activity: minimal concentration (reduction by logarithmic factor of at least 4): 0.01 % (m/V)
HIV-1 virus (LAI strain); 1/2 dilution of virus treated with BKF, second experiment (FIG. 2)
  RT activity in culture supernatants: No RT activity was detected
HIV-1 virus (LAI strain); 1/10 dilution of virus treated with BKF 20 μg/ml for 30 or 60 minutes (FIG. 1)
  reverse transcriptase activity in culture supernatants: no reverse transcriptase activity is revealed
HIV-1 virus (LAI strain); Human immunodeficiency virus 1, Lymphocyte, 20 μg/ml, activated human lymphocytes, read-out: loss of infectious capacity in the HIV-1 virus
  log reduction at 20 µg/mL: 5
[1]; 0.01% (m/V)
  virucidal activity: minimal contact time: 15 min
[1]; 0.01% (m/V), 60 minutes
  Viral Titration: 0 PFU/ml
[1]; 0.01% (m/V), 120 minutes
  Viral Titration: 0 PFU/ml
[1]; 0.02% (m/V), 15 minutes
  Viral Titration: 0 PFU/ml
[1]; 0.02% (m/V), 30 minutes
  Viral Titration: 0 PFU/ml
[1]; 0.02% (m/V), 60 minutes
  Viral Titration: 0 PFU/ml
[1]; 0.02% (m/V), 120 minutes
  Viral Titration: 0 PFU/ml
[1]; 15 minutes contact
  virucidal activity: minimal concentration (reduction by logarithmic factor of at least 4): 0.01 % (m/V)
AIDS; 50 ml at 2.1 g/l every twelve hours, end of second cure
  pain at the injection point: pain at the injection point
AIDS; after treatment, before: less than 200
  number of CD4: 600
AIDS; fourth month
  general state: returned to a normal general state
AIDS; one month and seven months after treatment
  general state: a good general state
AIDS; sixth day, 50 ml at 2.1 g/l every eight hours, three days, with Doxycycline
  fever: the fever had disappeared
AIDS; tenth day
  fever, vomiting and diarrhoea: disappearance of the fever, vomiting and diarrhoea
AIDS; tenth day, two cures of three days
  general state: a clear improvement in the general state
AIDS; tenth day, before 57 kg
  weight after gain: 59.6 kg
AIDS; third day, 2.1 g/l every twelve hours
  fever: a clear fall in the fever
AIDS; three and a half months
  clinical symptoms: no clinical symptoms
  general state: a good general state
AIDS; three and a half months, before 52 kg
  weight: 56 kg
AIDS; three and a half months, before 200
  number of CD4: 700
AIDS; totally bedridden before
  mobility: could get up and walk
AIDS; two months after start
  asthenia: progressive disappearance of the asthenia
patient's blood
  haemolytic concentration on patient's blood: well above that of the solution used
Guinea pig blood; 37.5 ppm or mg/l
  haemolysis (degree of red colouring): 0
Guinea pig blood; 75 ppm or mg/l
  haemolysis (degree of red colouring): +
Guinea pig blood; 150 ppm or mg/l
  haemolysis (degree of red colouring): ++++
parvovirus; dog, in vivo
  tolerance: excellent
parvovirus; [2]
  normal eating: 4 days
  total recovery confirmed: 18 days
parvovirus; female German Shepherd 10 kg, 10 ml then 20 ml, associated treatment 8 days
  total recovery: 20 days
parvovirus; female Rottweiler 15 kg, two injections of 10 ml, 12 h apart
  complete recovery: 18 days
parvovirus; male German Shepherd 20 kg, two injections at 12 h interval, 2.1 g/l
  recovery, days after start of treatment: 6 days
parvovirus; male Newfoundland 28 kg, after four days
  normal eating: eating normally
parvovirus; male Newfoundland 28 kg, two injections of 10 ml, end of second day
  blood in urine and vomiting: the blood had disappeared from the urine and the dog no longer vomited
parvovirus; three puppies with violent evolutive gastro-enteritis, two injections at 12 h interval
  death: Death occurred within two days
mice; female mouse, intraperitoneal
  LD 50: 34.60 mg/mL
mice; female mouse, intravenous
  LD 50: 36.60 mg/mL
mice; intravenous, intraperitoneal or intracardiac injection, mice and guinea pigs
  acute toxicity, overall: sufficiently low toxicity
mice; male mouse, intraperitoneal
  LD 50: 33.10 mg/mL
mice; male mouse, intravenous
  LD 50: 33.24 mg/mL
